Tests used:
Conditions in all cases: 72 h
[1] = system: Calu-3; assay: drug sensitivity score (DSS) for viability; higher = more toxic; extreme values may be limits of the assay
[2] = system: Vero E6; assay: as above
[3] = system: U2OS; assay: as above
[4] = system: Caco-2; assay: as above
[5] = system: HepG2; assay: as above
[6] = system: Calu-3; assay: cell viability relative to DMSO; higher = less toxic
[7] = system: Vero E6; assay: as above
[8] = system: U2OS; assay: as above
[9] = system: Caco-2; assay: as above
[10] = system: HepG2; assay: as above
[11] = system: Calu-3; assay: relative viability EC50 (midpoint between 100% and the lowest measured viability); higher = less toxic
[12] = system: Vero E6; assay: as above
[13] = system: U2OS; assay: as above
[14] = system: Caco-2; assay: as above
[15] = system: HepG2; assay: as above

Row | SMILES | drug sensitivity score [1] | drug sensitivity score [2] | drug sensitivity score [3] | drug sensitivity score [4] | drug sensitivity score [5] | cell viability ([6]; 1 nM) [%] | cell viability ([6]; 10 nM) [%] | cell viability ([6]; 100 nM) [%] | cell viability ([6]; 1000 nM) [%] | cell viability ([6]; 10000 nM) [%] | cell viability ([7]; 1 nM) [%] | cell viability ([7]; 10 nM) [%] | cell viability ([7]; 100 nM) [%] | cell viability ([7]; 1000 nM) [%] | cell viability ([7]; 10000 nM) [%] | cell viability ([8]; 1 nM) [%] | cell viability ([8]; 10 nM) [%] | cell viability ([8]; 100 nM) [%] | cell viability ([8]; 1000 nM) [%] | cell viability ([8]; 10000 nM) [%] | cell viability ([9]; 1 nM) [%] | cell viability ([9]; 10 nM) [%] | cell viability ([9]; 100 nM) [%] | cell viability ([9]; 1000 nM) [%] | cell viability ([9]; 10000 nM) [%] | cell viability ([10]; 1 nM) [%] | cell viability ([10]; 10 nM) [%] | cell viability ([10]; 100 nM) [%] | cell viability ([10]; 1000 nM) [%] | cell viability ([10]; 10000 nM) [%] | relative viability EC50 [11] [µM] | relative viability EC50 [12] [µM] | relative viability EC50 [13] [µM] | relative viability EC50 [14] [µM] | relative viability EC50 [15] [µM]
1 | CN(C)CCNc1nc2cc(O)ccc2c2c1C(=O)c1ccccc1-2 [TAS-103] | 11.1 | 13.4 | 11.5 | 9.6 | 19.7 | 109 | 93.4 | 89.1 | 50.4 | 15.4 | 101 | 106 | 84.8 | 40 | 0.1 | 99.4 | 95.3 | 95.3 | 49.5 | 0 | 102 | 104 | 102 | 56.8 | 22.3 | 100 | 95.9 | 66.3 | 15.5 | 0.3 | 0.67 | 0.634 | 0.975 | 0.915 | 0.19
2 | O=C(Nc1ccc(F)cc1)N1CCc2ccccc2[C@@H]1c1ccc(C(F)(F)F)cc1 [TC-I-2000] | 0 | 0 | 0 | 0 | 0 | 107 | 98.3 | 94.6 | 99 | 97.4 | 108 | 101 | 102 | 103 | 89.7 | 98.7 | 99.2 | 102 | 99.8 | 102 | 102 | 103 | 95.9 | 98.7 | 93.3 | 93.6 | 109 | 99.5 | 101 | 94.2 | > 10 | > 10 | > 10 | > 10 | > 10
3 | COc1cccc(-n2nc(C(=O)O)cc2-c2ccc(C3CCCCC3)c(Cl)c2)c1 [TC-LPA5-4] | 0 | 0 | 0 | 0 | 0 | 97.4 | 94.5 | 101 | 95.8 | 108 | 102 | 104 | 103 | 99.6 | 96 | 100 | 96.4 | 97.8 | 94.9 | 94.9 | 87.4 | 93.6 | 96.4 | 97.7 | 101 | 111 | 92.6 | 101 | 104 | 102 | > 10 | > 10 | > 10 | > 10 | > 10
4 | O=C1c2ccccc2C(Cc2ccncc2)(Cc2ccncc2)c2ccccc21 [XE-991] | 0 | 0 | 0 | 0 | 0 | 108 | 87.7 | 108 | 91.2 | 99.8 | 94.5 | 101 | 98.8 | 93.3 | 91.1 | 103 | 98.8 | 100 | 96.5 | 100 | 100 | 94.1 | 97.5 | 93.8 | 89.2 | 97.8 | 97.6 | 97.6 | 96.3 | 89.1 | > 10 | > 10 | > 10 | > 10 | > 10
5 | Nc1ncnc2c1ncn2[C@@H]1O[C@H](COP(=O)(O)O)[C@@H](O)[C@H]1O [adenosine-phosphate] | 0 | 0 | 0 | 0 | 0 | 89.1 | 93.5 | 93.6 | 101 | 89.6 | 101 | 108 | 110 | 91 | 102 | 97.9 | 102 | 94.6 | 104 | 107 | 114 | 98 | 86.4 | 113 | 92.8 | 90.2 | 94.5 | 101 | 85.6 | 96 | > 10 | > 10 | > 10 | > 10 | > 10
6 | C=CCSCC1Nc2cc(Cl)c(S(N)(=O)=O)cc2S(=O)(=O)N1 (stereo not given) [althiazide] | 0 | 0 | 0 | 0 | 0 | 111 | 94.8 | 112 | 112 | 101 | 97.8 | 97.2 | 98.8 | 104 | 112 | 96.1 | 95.5 | 100 | 96.9 | 100 | 90.1 | 96.8 | 93 | 90.9 | 89.8 | 109 | 116 | 94.2 | 102 | 107 | > 10 | > 10 | > 10 | > 10 | > 10
7 | C[C@H]1CN(C[C@H](Cc2ccccc2)C(=O)NCC(=O)O)CC[C@@]1(C)c1cccc(O)c1 [alvimopan] | 0 | 0 | 0 | 0 | 0 | 107 | 91.9 | 104 | 111 | 104 | 90.4 | 96.2 | 94.8 | 95.8 | 104 | 100 | 97.3 | 101 | 104 | 102 | 102 | 91.8 | 93.6 | 107 | 106 | 96.8 | 103 | 110 | 99.3 | 104 | > 10 | > 10 | > 10 | > 10 | > 10
